Laboratory results from paper PMC12005989, “Purification, identification, and in silico screening of a multifunctional octapeptide from semen armeniacae glutelin-2 hydrolysates: restraining mechanisms to Keap1 and ACE, stability, and ferrous-transport efficiency” (Frontiers in Nutrition, 2025).
Ends that are not written are not given here.

Assays:
[1] = ABTS+ radical quenching, potassium persulfate method; settings: 100 μg/mL; mean ± SD, triplicate
Description: The free radical quenching ability of samples, including superoxide, 2,2′-hydrazine-bis (3-ethylbenzothiazolin-6-sulfonic acid) diamine salt cation (ABTS^+), and hydroxyl radicals, was determined using the pyrogallol auto-oxidation, potassium persulfate, and β-deoxyribose oxidation methods, according to the same procedures from Tyagi et al. ([6]), Lin et al. ([2]), and Wang et al. ([35]), respectively. Comparison was conducted when the samples were replaced by glutathione (0.1 mg/mL).
As described by Wu et al. ([41]), the simulative gastric digestive fluid consisted of sodium chloride (0.18 mol/L), ultrapure water (180 mL), and 0.40 mg/mL of pepsin. The simulation intestinal digestive juice was composed of NaHCO3 (0.625 g/mL), bile salt (3 g/100 mL), pancreatin (0.35 mg/mL), and 180 mL ultrapure water. In a glass triangle flask, 300 mg of the antihypertensive and antioxidant BAG-2H peptides, 60 mL of ultrapure water, and 150 mL of the simulative gastric fluid were mixed thoroughly. The flask was placed at 37°C in an EDZF-C002 thermostatic vibrator with shaking rate of 140 rpm. After 90 min, 180 mL of the simulative intestinal hydrolysis fluid was added and stirred at 37°C for 2 h. […] The ACE inhibition capacity and antioxidant ability of the treated BAG-2H peptides were detected and compared to those of the undigested BAG-2H peptides.

[2] = Ferric reducing ability, Prussian blue method; settings: 100 μg/mL, pH 6.8 phosphate buffer; determined at 700 nm; mean ± SD, triplicate; the values are: absorbance at 700 nm
Description: Ferric reducing ability was defined as the ability of antioxidants to provide protons, which was administrated according to the Prussian blue method ([2]). A total 1 mL of BAG-2H peptide solution (100 μg/mL, dissolved in 0.2 mol/L of phosphate buffer, pH 6.8) was reacted with potassium ferricyanide (10 mg/mL, 4 mL) in the EDZF-C002 thermostatic vibrator (50°C, 220 rpm) for 30 min. The reaction solution was cooled to 25 ± 1°C and precipitated using an equal volume of 100 mg/mL trichloroacetic acid for 10 min. Then, the reaction solution was centrifuged at 3000 × g for 25 min, and 1 mL of the upper solution was pipetted and reacted with 1 mg/mL of FeCl3 (1.2 mL) to produce Prussian blue (potassium ferrocyanide). The concentration of potassium ferrocyanide produced was positively correlated with the ferric reducing ability of the sample ([37]), which was determined at 700 nm using a HD-UV90 ultraviolet–visible spectrophotometer (Holder Technology Co. LTD, Weifang, China).
As described by Wu et al. ([41]), the simulative gastric digestive fluid consisted of sodium chloride (0.18 mol/L), ultrapure water (180 mL), and 0.40 mg/mL of pepsin. […] The ACE inhibition capacity and antioxidant ability of the treated BAG-2H peptides were detected and compared to those of the undigested BAG-2H peptides.

[3] = system: Caco-2 cell monolayers; assay: Ferrous transport across Caco-2 cell monolayers; assay type: in vitro ADME; settings: Caco-2 transwell, apical to basolateral, chelate 320 μg/mL, 37°C, o-phenanthroline, p < 0.05
Description: In a 24-well transwell culture plate, Caco-2 cells (0.75 × 10^6 cells/cm^2) were cultivated by Dulbecco’s modified Eagle’s medium that contained fetal bovine serum (20 g/L), streptomycin (1 μg/μL), penicillin (1 μg/μL), and neomycin (1 μg/μL) and refreshed every 48 h. After 12–14 d of incubation at 5% CO2 and 37°C, the transepithelial electrical resistance was more than 400 Ω·cm^2 and a monolayer Caco-2 cell mode was formed. Afterward, the medium was removed, and Hank’s Balanced Salt Solution was added. After 30 min of cultivation at 5% CO2 and 37°C, Hank’s Balanced Salt Solution was removed from the apical side and BAG-2H peptide-ferrous chelates (320 μg/mL) were added and then cultivated at 5% CO2 and 37°C for 150 min. Every 30 min, the o-phenanthroline method was used to quantify the ferrous amounts of cultivate solution in the basolateral side ([38]).

PVDFAGFY-ferrous chelate: ferrous chelate of PVDFAGFY prepared with ferrous chloride (also: ferrous chelate)
ABTS+ scavenging activity, before gastrointestinal [1]: 35.18% ± 1.16%c
Ferric reducing ability, before gastrointestinal [2]: 0.225 ± 0.012
Ferrous transmembrane absorption across Caco-2 monolayer compared with ferrous chloride ([3]; FeCl2 0.3 mg/mL, HBSS, 150 min): higher than that of ferrous chloride
Ferrous transport across Caco-2 monolayer compared with ferrous lactate, 120–150 min ([3]; ferrous lactate 0.3 mg/mL): better at transporting iron across the monolayer of Caco-2 cells than ferrous lactate
